Laboratory results published in the kinase profiling compilation of Christmann-Franck et al. (2016).
Where “and” joins values, the source holds several entries; their conditions need not be identical. Equal entries are not always repeated.

How the values were obtained:
Test in all cases: radiometric filter-binding kinase assay
Details in all cases: compound 1.0 µM
AURKA (human) = AURKA (human) (UniProt O14965)
BTK (human) = BTK (human) (UniProt Q06187)
DYRK1A (human) = DYRK1A (human) (UniProt Q13627)
EPHA4 (human) = EPHA4 (human) (UniProt P54764)
EPHB2 (human) = EPHB2 (human) (UniProt P29323)
EPHB4 (human) = EPHB4 (human) (UniProt P54760)
ERBB4 (human) = ERBB4 (human) (UniProt Q15303)
FLT1 (human) = FLT1 (human) (UniProt P17948)
HIPK1 (human) = HIPK1 (human) (UniProt Q86Z02)
HIPK3 (human) = HIPK3 (human) (UniProt Q9H422)
IGF1R (human) = IGF1R (human) (UniProt P08069)
INSR (human) = INSR (human) (UniProt P06213)
IRAK4 (human) = IRAK4 (human) (UniProt Q9NWZ3)
JAK2 JH1 JH2 (human) = JAK2 JH1 JH2 (human) (UniProt O60674)
MAP2K2 (human) = MAP2K2 (human) (UniProt P36507)
MAP2K6 (human) = MAP2K6 (human) (UniProt P52564)
MAP3K11 (human) = MAP3K11 (human) (UniProt Q16584)
MAP3K5 (human) = MAP3K5 (human) (UniProt Q99683)
MAP3K7 TAB1 (human) = MAP3K7 TAB1 (human) (UniProt Q15750+O43318)
MAP3K9 (human) = MAP3K9 (human) (UniProt P80192)
MAPK10 (human) = MAPK10 (human) (UniProt P53779)
MAPKAPK3 (human) = MAPKAPK3 (human) (UniProt Q16644)
MARK1 (human) = MARK1 (human) (UniProt Q9P0L2)
MARK2 (human) = MARK2 (human) (UniProt Q7KZI7)
MARK4 (human) = MARK4 (human) (UniProt Q96L34)
NTRK1 (human) = NTRK1 (human) (UniProt P04629)
[1] = system: PAK2 (human), Q13177 [T402E]
PDPK1 (human) = PDPK1 (human) (UniProt O15530)
RIPK2 (human) = RIPK2 (human) (UniProt O43353)
[2] = biological target: STK11 CAB39 STRADA (human) (UniProt Q9Y376+Q7RTN6+Q15831)
STK16 (human) = STK16 (human) (UniProt O75716)
STK33 (human) = STK33 (human) (UniProt Q9BYT3)
TAOK1 (human) = TAOK1 (human) (UniProt Q7L7X3)
TEK (human) = TEK (human) (UniProt Q02763)
TTK (human) = TTK (human) (UniProt P33981)

Chain of MAP3K5 (human) (Q99683 whole entry, looked up): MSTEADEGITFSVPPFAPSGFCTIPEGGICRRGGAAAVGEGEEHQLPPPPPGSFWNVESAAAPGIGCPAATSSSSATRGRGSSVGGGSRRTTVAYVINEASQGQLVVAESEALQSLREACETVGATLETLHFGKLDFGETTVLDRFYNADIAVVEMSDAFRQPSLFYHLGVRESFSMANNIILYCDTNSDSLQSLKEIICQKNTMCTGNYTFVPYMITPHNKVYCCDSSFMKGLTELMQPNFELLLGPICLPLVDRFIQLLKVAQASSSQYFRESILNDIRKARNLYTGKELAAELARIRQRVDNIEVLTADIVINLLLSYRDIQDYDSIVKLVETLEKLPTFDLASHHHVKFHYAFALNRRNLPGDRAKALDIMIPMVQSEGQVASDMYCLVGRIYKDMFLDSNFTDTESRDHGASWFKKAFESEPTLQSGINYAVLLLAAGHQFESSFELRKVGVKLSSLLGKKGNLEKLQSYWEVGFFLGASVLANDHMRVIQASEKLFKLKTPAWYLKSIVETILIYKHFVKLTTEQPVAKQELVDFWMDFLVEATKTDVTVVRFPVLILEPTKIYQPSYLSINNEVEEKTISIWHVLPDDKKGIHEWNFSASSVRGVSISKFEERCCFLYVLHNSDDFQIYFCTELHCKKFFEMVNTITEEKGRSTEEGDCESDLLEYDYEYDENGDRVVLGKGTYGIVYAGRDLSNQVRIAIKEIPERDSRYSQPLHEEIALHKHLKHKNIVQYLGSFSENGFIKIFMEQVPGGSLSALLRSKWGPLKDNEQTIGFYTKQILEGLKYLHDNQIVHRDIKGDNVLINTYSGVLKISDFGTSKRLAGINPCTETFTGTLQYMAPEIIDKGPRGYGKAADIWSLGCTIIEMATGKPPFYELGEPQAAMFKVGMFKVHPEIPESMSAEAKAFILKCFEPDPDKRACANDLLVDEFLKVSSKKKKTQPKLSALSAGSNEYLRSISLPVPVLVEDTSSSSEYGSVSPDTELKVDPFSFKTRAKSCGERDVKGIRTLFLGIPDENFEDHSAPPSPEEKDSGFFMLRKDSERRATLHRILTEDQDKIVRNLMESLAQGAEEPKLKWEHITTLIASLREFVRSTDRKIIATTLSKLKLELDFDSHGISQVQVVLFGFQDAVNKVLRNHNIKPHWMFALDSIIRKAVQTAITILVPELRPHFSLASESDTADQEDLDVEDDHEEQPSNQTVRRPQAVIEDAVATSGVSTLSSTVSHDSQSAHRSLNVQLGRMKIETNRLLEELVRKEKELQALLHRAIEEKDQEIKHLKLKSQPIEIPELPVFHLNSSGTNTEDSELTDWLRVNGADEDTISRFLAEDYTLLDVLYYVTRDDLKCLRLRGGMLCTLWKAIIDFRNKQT
Chain of MAPKAPK3 (human) (Q16644 whole entry, looked up): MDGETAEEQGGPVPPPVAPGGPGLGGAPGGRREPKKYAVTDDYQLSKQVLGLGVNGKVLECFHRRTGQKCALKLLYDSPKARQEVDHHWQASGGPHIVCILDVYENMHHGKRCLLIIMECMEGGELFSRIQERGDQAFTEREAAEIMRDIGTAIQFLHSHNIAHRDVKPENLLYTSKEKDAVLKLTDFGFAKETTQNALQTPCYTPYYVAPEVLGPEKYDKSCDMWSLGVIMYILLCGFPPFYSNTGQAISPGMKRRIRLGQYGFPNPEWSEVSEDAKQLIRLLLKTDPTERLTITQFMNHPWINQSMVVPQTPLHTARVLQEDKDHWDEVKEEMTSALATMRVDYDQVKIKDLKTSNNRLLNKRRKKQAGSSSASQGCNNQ
Chain of STK16 (human) (O75716 whole entry, looked up): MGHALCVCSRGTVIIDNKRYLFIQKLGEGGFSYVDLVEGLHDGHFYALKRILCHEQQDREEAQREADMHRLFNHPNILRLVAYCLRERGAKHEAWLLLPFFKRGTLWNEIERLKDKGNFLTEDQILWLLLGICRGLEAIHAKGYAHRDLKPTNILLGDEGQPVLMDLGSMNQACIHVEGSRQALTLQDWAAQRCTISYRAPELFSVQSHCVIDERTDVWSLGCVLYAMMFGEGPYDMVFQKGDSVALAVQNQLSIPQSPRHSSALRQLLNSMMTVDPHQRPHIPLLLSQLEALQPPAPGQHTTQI
Chain of STK33 (human) (Q9BYT3 whole entry, looked up): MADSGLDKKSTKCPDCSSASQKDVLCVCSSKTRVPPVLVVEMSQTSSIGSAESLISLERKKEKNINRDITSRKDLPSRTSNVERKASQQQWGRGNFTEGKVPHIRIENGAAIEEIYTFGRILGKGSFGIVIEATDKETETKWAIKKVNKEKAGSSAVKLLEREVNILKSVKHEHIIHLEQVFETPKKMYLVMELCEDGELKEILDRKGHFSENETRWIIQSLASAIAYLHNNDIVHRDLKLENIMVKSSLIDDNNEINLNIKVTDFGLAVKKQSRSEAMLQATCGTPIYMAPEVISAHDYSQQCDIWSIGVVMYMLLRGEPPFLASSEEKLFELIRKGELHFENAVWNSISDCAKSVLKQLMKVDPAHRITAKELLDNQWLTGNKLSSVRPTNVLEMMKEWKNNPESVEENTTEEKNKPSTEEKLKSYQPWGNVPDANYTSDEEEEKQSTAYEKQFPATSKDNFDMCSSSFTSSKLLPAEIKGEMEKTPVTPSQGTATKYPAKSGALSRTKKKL
Chain of IRAK4 (human) (Q9NWZ3 whole entry, looked up): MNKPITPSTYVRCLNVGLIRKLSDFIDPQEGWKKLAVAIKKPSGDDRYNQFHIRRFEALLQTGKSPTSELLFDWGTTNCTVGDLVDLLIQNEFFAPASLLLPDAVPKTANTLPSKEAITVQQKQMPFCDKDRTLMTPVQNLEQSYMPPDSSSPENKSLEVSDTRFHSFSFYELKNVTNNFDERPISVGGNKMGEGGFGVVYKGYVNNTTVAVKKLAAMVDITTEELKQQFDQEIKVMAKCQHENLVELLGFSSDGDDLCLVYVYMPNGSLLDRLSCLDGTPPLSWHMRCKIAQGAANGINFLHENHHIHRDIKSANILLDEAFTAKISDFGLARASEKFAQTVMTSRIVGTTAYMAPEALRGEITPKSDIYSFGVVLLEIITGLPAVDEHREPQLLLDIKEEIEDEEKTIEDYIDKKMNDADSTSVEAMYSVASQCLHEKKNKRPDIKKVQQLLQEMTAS
Chain of PDPK1 (human) (O15530 whole entry, looked up): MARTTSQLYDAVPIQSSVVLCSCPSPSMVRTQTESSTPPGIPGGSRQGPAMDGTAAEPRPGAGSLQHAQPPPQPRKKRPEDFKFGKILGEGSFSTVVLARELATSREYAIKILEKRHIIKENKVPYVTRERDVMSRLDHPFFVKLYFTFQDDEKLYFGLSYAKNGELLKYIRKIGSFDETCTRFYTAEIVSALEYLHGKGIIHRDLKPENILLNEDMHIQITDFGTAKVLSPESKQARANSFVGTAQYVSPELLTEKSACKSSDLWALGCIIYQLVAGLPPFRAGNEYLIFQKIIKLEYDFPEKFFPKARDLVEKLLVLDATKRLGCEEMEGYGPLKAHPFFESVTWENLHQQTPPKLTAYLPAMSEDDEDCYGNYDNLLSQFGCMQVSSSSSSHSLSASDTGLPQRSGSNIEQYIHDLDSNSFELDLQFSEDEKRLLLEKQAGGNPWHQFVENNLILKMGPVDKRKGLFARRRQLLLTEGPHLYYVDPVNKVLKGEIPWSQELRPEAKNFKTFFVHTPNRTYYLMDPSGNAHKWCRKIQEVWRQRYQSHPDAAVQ
Chain of PAK2 (human), Q13177 [T402E] (Q13177 whole entry T402E, looked up): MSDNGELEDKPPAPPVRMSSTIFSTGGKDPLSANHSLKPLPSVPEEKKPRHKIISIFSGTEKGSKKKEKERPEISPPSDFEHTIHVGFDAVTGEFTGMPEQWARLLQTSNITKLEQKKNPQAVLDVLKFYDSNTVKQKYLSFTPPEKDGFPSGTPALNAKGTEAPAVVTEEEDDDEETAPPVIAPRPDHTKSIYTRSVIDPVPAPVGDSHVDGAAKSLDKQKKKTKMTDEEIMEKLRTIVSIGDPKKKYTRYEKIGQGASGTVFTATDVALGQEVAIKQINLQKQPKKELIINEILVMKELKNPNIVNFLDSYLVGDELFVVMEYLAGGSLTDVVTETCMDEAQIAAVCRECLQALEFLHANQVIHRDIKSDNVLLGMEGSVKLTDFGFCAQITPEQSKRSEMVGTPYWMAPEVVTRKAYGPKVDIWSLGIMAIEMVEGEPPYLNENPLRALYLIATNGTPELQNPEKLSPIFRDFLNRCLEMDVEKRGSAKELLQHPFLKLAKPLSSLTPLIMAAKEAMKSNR
Chain of MARK4 (human) (Q96L34 whole entry, looked up): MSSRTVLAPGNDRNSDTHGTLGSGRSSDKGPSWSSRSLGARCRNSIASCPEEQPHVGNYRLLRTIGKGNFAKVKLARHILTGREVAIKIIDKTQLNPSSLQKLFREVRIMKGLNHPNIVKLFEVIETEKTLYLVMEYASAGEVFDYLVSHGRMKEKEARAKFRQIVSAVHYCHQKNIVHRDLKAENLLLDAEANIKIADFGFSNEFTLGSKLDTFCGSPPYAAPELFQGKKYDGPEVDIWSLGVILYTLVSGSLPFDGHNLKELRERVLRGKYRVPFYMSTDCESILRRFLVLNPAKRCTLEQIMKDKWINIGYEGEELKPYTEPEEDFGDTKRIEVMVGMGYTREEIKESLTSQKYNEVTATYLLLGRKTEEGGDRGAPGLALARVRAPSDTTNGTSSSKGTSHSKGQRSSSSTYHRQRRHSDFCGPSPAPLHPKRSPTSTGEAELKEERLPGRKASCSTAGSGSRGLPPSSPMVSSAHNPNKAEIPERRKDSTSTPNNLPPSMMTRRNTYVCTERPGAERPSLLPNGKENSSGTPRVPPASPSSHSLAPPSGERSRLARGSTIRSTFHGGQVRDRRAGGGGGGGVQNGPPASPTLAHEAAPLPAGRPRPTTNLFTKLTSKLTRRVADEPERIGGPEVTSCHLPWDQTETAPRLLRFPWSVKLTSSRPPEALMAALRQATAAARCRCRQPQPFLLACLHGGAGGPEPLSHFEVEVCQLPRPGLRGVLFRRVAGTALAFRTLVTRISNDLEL

Row | SMILES | residual activity (AURKA (human)) [%] | residual activity (BTK (human)) [%] | residual activity (EPHA4 (human)) [%] | residual activity (EPHB2 (human)) [%] | residual activity (EPHB4 (human)) [%] | residual activity (ERBB4 (human)) [%] | residual activity (FLT1 (human)) [%] | residual activity (HIPK1 (human)) [%] | residual activity (HIPK3 (human)) [%] | residual activity (IGF1R (human)) [%] | residual activity (INSR (human)) [%] | residual activity (IRAK4 (human)) [%] | residual activity (JAK2 JH1 JH2 (human)) [%] | residual activity (MAP2K2 (human)) [%] | residual activity (MAP2K6 (human)) [%] | residual activity (MAP3K11 (human)) [%] | residual activity (MAP3K5 (human)) [%] | residual activity (MAP3K7 TAB1 (human)) [%] | residual activity (MAP3K9 (human)) [%] | residual activity (MAPK10 (human)) [%] | further results
1 | COc1ccc2c(c1)[nH]c1c(C)nccc12 | 93 | 69 | 97 | 136 | 101 | 92 | 78 | 119 | 118 | 93 | 100 | 59 | 92 | 99 | 95 | 105 | 95 | 95 | 111 | 81 | residual activity (DYRK1A (human)): 2%; residual activity (MAPKAPK3 (human)): 105%; residual activity (MARK1 (human)): 88%; residual activity (MARK2 (human)): 80%; residual activity (MARK4 (human)): 89%; residual activity (NTRK1 (human)): 104%; residual activity [1]: 89%; residual activity (PDPK1 (human)): 99% and 115%; residual activity (RIPK2 (human)): 107%; residual activity [2]: 94%; residual activity (STK16 (human)): 92%; residual activity (STK33 (human)): 97%; residual activity (TAOK1 (human)): 111%; residual activity (TEK (human)): 112%; residual activity (TTK (human)): 75%
2 | Oc1ccc2c(c1)oc1c3ccccc3c(O)cc21 | 103 | 60 | 100 | 100 | 103 | 77 | 40 | 74 | 63 | 78 | 98 | 75 | 117 | 102 | 92 | 76 | 87 | 71 | 87 | 105 | residual activity (MAPKAPK3 (human)): 84%; residual activity (MARK1 (human)): 88%; residual activity (MARK2 (human)): 87%; residual activity (MARK4 (human)): 99%; residual activity (NTRK1 (human)): 107%; residual activity [1]: 87%; residual activity (RIPK2 (human)): 107%; residual activity [2]: 71%; residual activity (STK16 (human)): 85%; residual activity (STK33 (human)): 85%; residual activity (TAOK1 (human)): 99%; residual activity (TEK (human)): 112%; residual activity (TTK (human)): 63%
